Data taken from patent publication US12171754B2, “Combinational uses of nitroxoline and its analogues with chemotherapies and immunotherapies in the treatment of cancers” (Jiangsu Yahong Meditech Co., Ltd., priority 2016, dated 2024).
Several values for one entry are separate records, joined by “and”; a condition that tells them apart may be missing. Equal values may be shown once. Read-outs that look alike come from different tables or passages of the source.

Assays:
[1] = test system: human bladder cancer cell line 5637; test: MTT assay, inhibition of cell growth (single drugs and combinations with NIT; CI by Chou's method); assay type: cell-based; settings: for Average Fa: 96 hours; for IC25 / IC75: 5637
Description: (§1) The combinational studies of NIT and chemotherapies were conducted by mixing NIT with individual chemotherapies at five to seven concentration levels, with the medium concentration levels close to their IC50 values. The combinational indices (CIs) were calculated and plotted according to Ting-Chao Chou's method (19) to estimate the combinational effects, including synergism, addition and antagonism.
(§2) Compounds: NIT, carboplatin, paclitaxel, epirubicin and pirarubicin were purchased from suppliers, and were dissolved in the DMSO to stock solution and store in −20° C. Before use, the stock solutions were diluted to different concentrations of working solutions. The DMSO concentration in working solutions was less than 1%. All cancer cell lines were purchased from vendors.
(§3) An MTT assay was used as the test method. An appropriate amount of cells (2×10^3/100 μL) was seeded into 96-well plate and incubated at 37° C. in a CO2 incubator overnight for cell adhesion and adaptation. Cancer cells were also seeded in a separate 96-well plate (plate T0), 12 wells/cell line, to measure the OD value at time zero (T0). After overnight adaptation, 20 μL MTT reagent were added per well (final concentration 0.5 mg/mL) to plate T0 and incubated at 37° C. for 4 hours. The supernatant medium was pipetted out, and about 150 μL DMSO were added per well. The plate was read on a plate reader using 550 nm as the test wavelength and 630 nm as the reference wavelength to obtain the OD value at time zero (T0). After overnight adaptation, the test compounds and vehicle were added into the plate to treat the cells. The test compounds were tested at 6 concentrations in triplicate wells. The plate was incubated at 37° C. in a CO2 incubator for 48 h. A longer incubation time can be used. 20 μL MTT reagent were added per well and incubated at 37° C. for 4 h. the supernatant medium was pipetted out, and about 150 μL DMSO were added per well. The plate was read on a plate reader (TECAN, Infinite M200) using about […] as the test wavelength and about […] as the reference wavelength. Cell viability (%) was calculated in two ways: % Viability=[(T−B)/(C−B)]×100% % Viability=[(T−C0)/(C−C0)]×100%
(§4) T: Mean Absorbance of Treatment at various hours;
(§5) C: Mean Absorbance of negative Control at various hours;
(§6) B: Mean Absorbance of blank well (only culture medium) at various hours;
(§7) C0: Mean Absorbance of negative Control at 0 h.
(§8) The results are expressed as mean±SD. The IC50 was calculated by XLfit software. The test for each compound was independently repeated once.

[2] = test system: human liver cancer cell line HepG2; test: as above; assay type: cell-based
Description: as §1, §2, §3, §4, §5, §6, §7, §8

MBT-2-Luc bladder cancer [3] = test system: MBT-2-Luc bladder cancer; design: concentration or dose not given beside the values; settings: mouse, in vivo
RM-9-Luc prostate cancer = test: Oral NIT with intraperitoneal anti-PD-1 antibody in orthotopic mouse RM-9-Luc prostate cancer model; assay type: in vivo
Description: Eight mice were analyzed for each group.
A low abdominal transverse incision was made, and the bilateral dorsal lobes of prostate were exposed. Following the trypsinization of RM-9-Luc cells, 5.0×10^3 cells in 10 μl of Hanks' balanced salt solution were injected using a new 24-gauge catheter directly into the right dorsal lobe of the prostate. A clearly recognizable bleb within the injected prostatic lobe was considered as a sign of a technically satisfactory injection. The abdominal wound was closed with stainless steel clips (Autoclip; Becton Dickinson Co., Sparks, Md.).

MBT-2-Luc bladder cancer [4] = test: Oral NIT with intravesical MMC in orthotopic mouse MBT-2-Luc bladder cancer model; settings: NIT 15 mg/kg Bid oral, MMC 1 mg/ml Q7d intravesical, single drug or actual observed value of combination; for Survival Proportion: end of the experiment (45 days)
Description: The tumor volume was analyzed by the Xenogen IVIS200 system following the indicated treatment. […] The tumor volume of each mouse was determined by region-of-interest analysis of total photons per second. Six mice were analyzed in each group.
To establish the orthotopic bladder cancer tumors, the mice were anesthetized by the intraperitoneal (i.p.) administration of ketamine/xylazine solution at a dose of 0.1 ml/10 g body weight (K113; Sigma-Aldrich Japan G.K., Tokyo, Japan). A 24-gauge Teflon intravenous catheter was subsequently inserted through the urethra into the bladder or prostate using an inert lubricant. In order to prepare the bladder for tumor implantation, a brief acid exposure, followed by alkaline neutralization, promoted a chemical lesion on the bladder wall, performed by the intravesical instillation of 8 μl 1 MOI silver nitrate. This led to the formation of an adequate and controlled diffuse bladder wall lesion. After 15 sec, the content was washed out by transurethral infusion of PBS. The first catheter was removed and a new 24-gauge catheter was inserted in the urethra for intravesical instillation of MBT-2-Luc cells (5×10^4 cells mixed with 0.1 ml PBS) and retained for 1.5 h by stitches. Every 10 days, tumor imaging was performed following i.p. administration of luciferin using bioluminescence technology (Xenogen IVIS200 system; Xenogen Corporation, Hopkinton, Mass., USA).
For the NIT and MMC combination, the mice carrying orthotopic bladder cancer tumors were randomly divided into four groups: control (PBS), NIT, MMC, and the combination of NIT and MMC.
(§9) The mice received i.p. injections of luciferin, and the luciferase expression in the tumors was measured by the Xenogen IVIS200 System.
Additivity was determined using the fractional product concept or Bliss Independence model: Exy=Ex+Ey−(ExEy), where EXY is the additive effect of the 2 compounds x and y as calculated by the product of the individual effect of the 2 compounds, Ex and Ey. Synergy was established when the actual observed tumor inhibition value was greater than the expected tumor inhibition value determined by the Bliss Independence model (20).

MBT-2-Luc bladder cancer [5] = test: Oral NIT with intraperitoneal anti-PD-1 antibody in orthotopic mouse MBT-2-Luc bladder cancer model
Description: The tumor volume of each mouse was determined by region-of-interest analysis of total photons per second. Five mice were analyzed in each group.
To establish the orthotopic bladder cancer tumors, the mice were anesthetized by the intraperitoneal (i.p.) administration of ketamine/xylazine solution at a dose of 0.1 ml/10 g body weight (K113; Sigma-Aldrich Japan G.K., Tokyo, Japan). A 24-gauge Teflon intravenous catheter was subsequently inserted through the urethra into the bladder or prostate using an inert lubricant. In order to prepare the bladder for tumor implantation, a brief acid exposure, followed by alkaline neutralization, promoted a chemical lesion on the bladder wall, performed by the intravesical instillation of 8 μl 1 MOI silver nitrate. This led to the formation of an adequate and controlled diffuse bladder wall lesion. After 15 sec, the content was washed out by transurethral infusion of PBS. […]
as §9
Additivity was determined using the fractional product concept or Bliss Independence model: Exy=Ex+Ey−(ExEy), where EXY is the additive effect of the 2 compounds x and y as calculated by the product of the individual effect of the 2 compounds, Ex and Ey.

[6] = Homo sapiens, cell line 5637, read-out: IC50 for inhibition of cell growth
[7] = Homo sapiens, inhibition of cell growth, 5637 (Table 9), read-out: IC50

## O=[N+]([O-])c1ccc(O)c2ncccc12 [NIT, Nitroxoline]
[1]; Homo sapiens, NIT 0.25 μg/ml, 120 hours, read-out: Inhibition Rates
  inhibition at 0.25 µg/mL: 18%
[1]; Homo sapiens, NIT 0.5 μg/ml, 120 hours, read-out: Inhibition Rates
  inhibition at 0.5 µg/mL: 52%
[1]; Homo sapiens, NIT 1 μg/ml, 120 hours, read-out: Inhibition Rates
  inhibition at 1 µg/mL: 79.9%
[1]; Homo sapiens, NIT 2 μg/ml, 120 hours, read-out: Inhibition Rates
  inhibition at 2 µg/mL: 92.3%
[1]; Homo sapiens, NIT 4 μg/ml, 120 hours, read-out: Inhibition Rates
  inhibition at 4 µg/mL: 95.5%
[1]; [6]
  IC50: 0.517 µg/mL
[1]; NIT 625, Mitomycin C 0 (units not given)
  Average Fa: −7.2%
[1]; NIT 1250, Mitomycin C 0 (units not given)
  Average Fa: −3.8%
[1]; NIT 2500, Mitomycin C 0 (units not given)
  Average Fa: 23.3%
[1]; NIT 5000, Mitomycin C 0 (units not given)
  Average Fa: 74.3%
[1]; NIT 10000, Mitomycin C 0 (units not given)
  Average Fa: 94.0%
[2]; Homo sapiens, HepG2, NIT 0.5 μg/ml, 120 hours, read-out: Inhibition Rates
  inhibition at 0.5 µg/mL: 3.2%
[2]; Homo sapiens, HepG2, NIT 1 μg/ml, 120 hours, read-out: Inhibition Rates
  inhibition at 1 µg/mL: 21.7%
[2]; Homo sapiens, HepG2, NIT 2 μg/ml, 120 hours, read-out: Inhibition Rates
  inhibition at 2 µg/mL: 80.3%
[2]; Homo sapiens, HepG2, NIT 4 μg/ml, 120 hours, read-out: Inhibition Rates
  inhibition at 4 µg/mL: 90.5%
[2]; Homo sapiens, HepG2, NIT 8 μg/ml, 120 hours, read-out: Inhibition Rates
  inhibition at 8 µg/mL: 93.5%
[2]; Homo sapiens, HepG2, NIT 16 μg/ml, 120 hours, read-out: Inhibition Rates
  inhibition at 16 µg/mL: 95.3%
[2]; Homo sapiens, cell line HepG2
  IC50: 1.86 µg/mL
MBT-2-Luc bladder cancer [3]
  Survival Proportion: 0.4
  Tumor Growth Inhibition: 0.52 and 0.35
RM-9-Luc prostate cancer; NIT 15 mg/kg bid p.o., anti-PD-1 10 mg/kg q4d intraperitoneal, single drug or actual observed value of combination
  Tumor Weight Proportion: 0.37
RM-9-Luc prostate cancer; tumor volume, FIG. 12B, NIT 15 mg/kg oral, anti-PD-1 10 mg/kg intraperitoneal
  tumor growth inhibition rate: 52%
RM-9-Luc prostate cancer; tumor volume, NIT 15 mg/kg bid p.o., anti-PD-1 10 mg/kg q4d intraperitoneal, single drug or actual observed value of combination
  Tumor Growth Inhibition: 0.52
RM-9-Luc prostate cancer; tumor weight, FIG. 12D, NIT 15 mg/kg oral, anti-PD-1 10 mg/kg intraperitoneal
  tumor inhibition by tumor weight: 37%
MBT-2-Luc bladder cancer [4]
  Tumor Growth Inhibition: 0.33
  Survival Proportion: 0.33
MBT-2-Luc bladder cancer [5]; NIT 15 mg/kg bid p.o., anti-PD-1 10 mg/kg q5d intraperitoneal, single drug or actual observed value of combination
  Tumor Growth Inhibition: 0.31
MBT-2-Luc bladder cancer [5]; NIT 15 mg/kg oral, anti-PD-1 10 mg/kg intraperitoneal, FIG. 11B
  tumor inhibition rate: 31%

## COc1cccc2c1C(=O)c1c(O)c3c(c(O)c1C2=O)C[C@@](O)(C(=O)CO)C[C@@H]3O[C@H]1C[C@H](N)[C@@H](O)[C@H](C)O1 [Epirubicin, epirubicin]
[1]; [7]
  IC50: 0.0452 µg/mL
[1]; inhibition of cell growth
  IC25: 0.03497 µg/mL
  IC75: 0.06393 µg/mL

## N.N.O=C([O-])C1(C(=O)[O-])CCC1.[Pt+2] [Carboplatin, carboplatin]
[1]; Carbo 0.5 μg/ml, 120 hours
  Inhibition Rates: 31.5%
[1]; Carbo 1 μg/ml, 120 hours
  Inhibition Rates: 53.7%
[1]; Carbo 2 μg/ml, 120 hours
  Inhibition Rates: 69.9%
[1]; Carbo 4 μg/ml, 120 hours
  Inhibition Rates: 88.1%
[1]; Carbo 8 μg/ml, 120 hours
  Inhibition Rates: 91.5%
[1]; cell line 5637
  IC50 for inhibition of cell growth: 0.917 µg/mL
[2]; Carbo 4 μg/ml, 120 hours
  Inhibition Rates: 38.9%
[2]; Carbo 8 μg/ml, 120 hours
  Inhibition Rates: 70.7%
[2]; Carbo 16 μg/ml, 120 hours
  Inhibition Rates: 85.2%
[2]; Carbo 32 μg/ml, 120 hours
  Inhibition Rates: 89.1%
[2]; Carbo 64 μg/ml, 120 hours
  Inhibition Rates: 93.0%
[2]; Carbo 128 μg/ml, 120 hours
  Inhibition Rates: 93.9%
[2]; cell line HepG2
  IC50 for inhibition of cell growth: 3.687 µg/mL

## COc1cccc2c1C(=O)c1c(O)c3c(c(O)c1C2=O)C[C@@](O)(C(=O)CO)C[C@@H]3O[C@H]1C[C@H](N)[C@H](O[C@@H]2CCCCO2)[C@H](C)O1 [Pirarubicin, pirarubicin]
[1]; [7]
  IC50: 0.143 µg/mL
[1]; inhibition of cell growth
  IC25: 0.09658 µg/mL
  IC75: 0.21958 µg/mL

## CC(=O)O[C@H]1C(=O)[C@@]2(C)[C@H]([C@H](OC(=O)c3ccccc3)[C@]3(O)C[C@H](OC(=O)[C@H](O)[C@@H](NC(=O)c4ccccc4)c4ccccc4)C(C)=C1C3(C)C)[C@]1(OC(C)=O)CO[C@@H]1C[C@@H]2O [Paclitaxel, paclitaxel]
[1]; [6]
  IC50: 0.000289 µg/mL
[1]; Taxol 0.125 ng/ml, 112 hours
  Inhibition Rates: 11.9%
[1]; Taxol 0.25 ng/ml, 112 hours
  Inhibition Rates: 47.6%
[1]; Taxol 0.5 ng/ml, 112 hours
  Inhibition Rates: 84.3%
[1]; Taxol 1 ng/ml, 112 hours
  Inhibition Rates: 90.3%
[1]; Taxol 2 ng/ml, 112 hours
  Inhibition Rates: 96.8%
[2]; Homo sapiens, cell line HepG2
  IC50: 0.0025 µg/mL
[2]; Taxol 0.5 ng/ml, 112 hours
  Inhibition Rates: 5.8%
[2]; Taxol 1 ng/ml, 112 hours
  Inhibition Rates: 14.0%
[2]; Taxol 2 ng/ml, 112 hours
  Inhibition Rates: 47.5%
[2]; Taxol 4 ng/ml, 112 hours
  Inhibition Rates: 75.8%
[2]; Taxol 8 ng/ml, 112 hours
  Inhibition Rates: 90.4%
[2]; Taxol 16 ng/ml, 112 hours
  Inhibition Rates: 92.7%

## CO[C@@]12[C@H](COC(N)=O)C3=C(C(=O)C(C)=C(N)C3=O)N1C[C@@H]1N[C@@H]12 [Mitomycin C, mitomycin C]
[1]; NIT 0, Mitomycin C 3.13 (units not given)
  Average Fa: 1.6%
[1]; NIT 0, Mitomycin C 12.5 (units not given)
  Average Fa: 27.7%
[1]; NIT 0, Mitomycin C 50 (units not given)
  Average Fa: 77.9%
[1]; NIT 0, Mitomycin C 200 (units not given)
  Average Fa: 79.4%
[1]; inhibition of cell growth
  IC25: 0.04836 µg/mL
  IC75: 0.53662 µg/mL
[1]; inhibition of cell growth, 5637 (Table 9)
  IC50: 0.15253 µg/mL
MBT-2-Luc bladder cancer [4]
  Tumor Growth Inhibition: 0.56
  Survival Proportion: 0.57
